We go through 19 compounds from patent publication US9399646B2 (Genentech, Inc., priority 2010, dated 2016).

The target of one assay is T1, ER-α in MCF-7 cells (Homo sapiens, UniProt P03372).
T1 sequence (P03372 1-595): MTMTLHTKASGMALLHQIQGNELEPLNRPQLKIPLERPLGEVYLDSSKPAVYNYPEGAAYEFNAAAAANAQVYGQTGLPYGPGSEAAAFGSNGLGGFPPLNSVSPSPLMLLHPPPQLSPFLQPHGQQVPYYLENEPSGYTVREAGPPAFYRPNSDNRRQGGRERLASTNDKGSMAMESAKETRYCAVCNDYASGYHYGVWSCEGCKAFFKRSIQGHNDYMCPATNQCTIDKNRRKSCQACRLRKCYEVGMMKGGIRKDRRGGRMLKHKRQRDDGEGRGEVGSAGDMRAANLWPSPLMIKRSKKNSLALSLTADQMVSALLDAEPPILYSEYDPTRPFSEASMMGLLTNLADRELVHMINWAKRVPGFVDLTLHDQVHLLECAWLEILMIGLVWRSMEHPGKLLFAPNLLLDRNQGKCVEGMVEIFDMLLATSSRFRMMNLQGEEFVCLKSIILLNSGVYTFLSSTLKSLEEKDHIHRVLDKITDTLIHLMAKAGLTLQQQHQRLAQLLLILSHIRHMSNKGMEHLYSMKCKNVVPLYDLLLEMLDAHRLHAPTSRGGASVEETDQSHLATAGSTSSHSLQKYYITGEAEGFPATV
The assay is described as follows: Breast cancer cell ER-α in cell western assay (SP1). The assay is classed as cell-based. The note with it: 4 or 24 hr post compound addition; for Emax: MCF7, SP1 antibody, read-out: ER-α In Cell Western Assay (SP1) Max Response; for DC50: SP1 antibody, read-out: ER-α In Cell Western Assay (SP1) IC50. More on the design: endogenous in cells; host or cells: MCF-7. The method, boiled down: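 Read-out is infrared in-cell western: SP1-detected ER intensity at 800 nm divided by DRAQ5 DNA intensity at 700 nm, relative to untreated wells ×100.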

In another assay the test system is MCF-7 cells. In words: Breast cancer cell viability assay (CellTiter-Glo, 5 days). The following applies: 5 days' compound exposure; for IC50: Homo sapiens, MCF7, 120 h. The assay is classed as cell-based. The method, boiled down:
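Eleven-point semilog compound series, final 0.3-0.000003 μM, added to overnight-adhered MCF-7 cells (320/well; RPMI, 10% FBS, 20 mM HEPES) for 5 days. Viability read by CellTiter-Glo luminescence, background from medium without cells subtracted, expressed relative to untreated cells.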
In general terms: In ATP-based viability assays light output follows the ATP content of the culture.

As a reminder, the IC50 is the concentration that gives 50% inhibition. A high value points to weaker potency.

Bounds are passed on as bounds.

Take `CC/C(=C(/c1ccc(/C=C/C(=O)O)cc1)c1ccc2[nH]c(=O)[nH]c2c1)c1ccccc1` [Compound 122, (E)-3-(4-((E)-1-(2-Oxo-2,3-dihydro-1H-benzo[d]imidazol-5-yl)-2-phenylbut-1-en-1-yl)phenyl)acrylic acid]: on ER-α in MCF-7 cells, the Emax was no less than 40% and the DC50 is greater than 100 nM. Further, in the assay with MCF-7 cells, the “MCF7 Viability Assay Max Response” value is reported as “++ (++ = a single % value ≧ 40%)” and the IC50 was greater than 100 nM.
For the compound `CC/C(=C(/c1csc(/C=C/C(=O)O)c1)c1ccc2[nH]ncc2c1)c1ccccc1` [Compound 186, (E)-3-(4-((Z)-1-(1H-Indazol-5-yl)-2-phenylbut-1-en-1-yl)thiophen-2-yl)acrylic acid], the Emax on ER-α in MCF-7 cells was no less than 40%. Moreover, in the assay with MCF-7 cells, the “MCF7 Viability Assay Max Response” value is given as “+ (+ = a single % value < 40%)” and the IC50 was greater than 100 nM.
Turning to `CC/C(=C(/c1ccc(/C=C/C(=O)O)cc1)c1ccc2[nH]ncc2c1)c1ccc(Cc2ccccc2)cc1` [Compound 317, (E)-3-(4-((E)-2-(4-Benzylphenyl)-1-(1H-indazol-5-yl)but-1-en-1-yl)phenyl)acrylic acid], on ER-α in MCF-7 cells, the Emax is no less than 40% and the DC50 was no more than 100 nM. In addition, in the assay on MCF-7 cells, the “MCF7 Viability Assay Max Response” value is recorded as “++ (++ = a single % value ≧ 40%)” and the 50% inhibitory concentration (IC50) is no more than 100 nM.
For the compound `CC/C(=C(/c1ccc(/C=C/C(=O)O)cc1)c1ccc2[nH]ncc2c1)c1ccncc1C#N` [Compound 303, (E)-3-(4-((E)-2-(3-Cyanopyridin-4-yl)-1-(1H-indazol-5-yl)but-1-en-1-yl)phenyl)acrylic acid], on ER-α in MCF-7 cells, the Emax was no less than 40% and the DC50 was greater than 100 nM. Besides, in the assay with MCF-7 cells, the “MCF7 Viability Assay Max Response” value is recorded as “++ (++ = a single % value ≧ 40%)” and the IC50 is greater than 100 nM.
With `CC/C(=C(/c1ccc(/C=C/C(=O)O)cc1)c1ccc2[nH]ncc2c1)c1ccc2c(c1)OCCO2` [Compound 250, (E)-3-(4-((E)-2-(2,3-Dihydrobenzo[b][1,4]dioxin-6-yl)-1-(1H-indazol-5-yl)but-1-en-1-yl)phenyl)acrylic acid], at ER-α in MCF-7 cells, the Emax was no less than 40% and the DC50 is no more than 100 nM. For the same compound, in the assay with MCF-7 cells, the “MCF7 Viability Assay Max Response” value is reported as “++ (++ = a single % value ≧ 40%)” and the IC50 was no more than 100 nM.
As to `CC/C(=C(/c1ccc(/C=C/C(=O)O)cc1)c1ccc2[nH]ncc2c1)c1ccc2scnc2c1` [Compound 255, (E)-3-(4-((E)-2-(Benzo[d]thiazol-5-yl)-1-(1H-indazol-5-yl)but-1-en-1-yl)phenyl)acrylic acid], on ER-α in MCF-7 cells, the Emax is no less than 40% and the DC50 was no more than 100 nM. Further, in the assay with MCF-7 cells, the “MCF7 Viability Assay Max Response” value is recorded as “++ (++ = a single % value ≧ 40%)” and the IC50 was no more than 100 nM.
With `O=C(O)/C=C/c1ccc(/C(=C(\c2ccc(F)cc2Cl)C2CCC2)c2ccc3scnc3c2)cc1` [Compound 278, (E)-3-(4-((E)-1-(Benzo[d]thiazol-5-yl)-2-(2-chloro-4-fluorophenyl)-2-cyclobutylvinyl)phenyl)acrylic acid], on ER-α in MCF-7 cells, the Emax was no less than 40% and the DC50 is no more than 100 nM. Further, in the assay with MCF-7 cells, the “MCF7 Viability Assay Max Response” value is “++ (++ = a single % value ≧ 40%)” and the concentration for half-maximal inhibition (IC50) is no more than 100 nM.
For `CC/C(=C(/c1ccc(/C=C/C(=O)O)cc1)c1ccc2[nH]ncc2c1)c1cccc(-n2cccn2)c1` [Compound 252, (E)-3-(4-((E)-2-(3-(1H-Pyrazol-1-yl)phenyl)-1-(1H-indazol-5-yl)but-1-en-1-yl)phenyl)acrylic acid], at ER-α in MCF-7 cells, the Emax is no less than 40% and the DC50 was no more than 100 nM. Also, in the assay on MCF-7 cells, the “MCF7 Viability Assay Max Response” value is on record as “++ (++ = a single % value ≧ 40%)” and the IC50 is greater than 100 nM.
For `CC/C(=C(/c1ccc(/C=C/C(=O)O)cc1)c1ccc2[nH]ncc2c1)c1cccc(-c2ccncc2)c1` [Compound 394, (E)-3-(4-((E)-1-(1H-Indazol-5-yl)-2-(3-(pyridin-4-yl)phenyl)but-1-en-1-yl)phenyl)acrylic acid], in that order: no less than 40%, no more than 100 nM, “++ (++ = a single % value ≧ 40%)” and greater than 100 nM.
As to `CC/C(=C(/c1ccc(/C=C/C(=O)O)cc1)c1ccc2[nH]c(=O)sc2c1)c1ccccc1` [Compound 75, (E)-3-(4-((E)-1-(2-Oxo-2,3-dihydrobenzo[d]thiazol-6-yl)-2-phenylbut-1-en-1-yl)phenyl)acrylic acid], the Emax on ER-α in MCF-7 cells is no less than 40%. In the assay on MCF-7 cells, the “MCF7 Viability Assay Max Response” value is listed as “++ (++ = a single % value ≧ 40%)” and the IC50 was greater than 100 nM.
`CC/C(=C(/c1ccc(/C=C/C(=O)O)cc1)c1ccc2[nH]ncc2c1)c1cccc(Oc2ccncc2C(F)(F)F)c1` [Compound 372, (E)-3-(4-((E)-1-(1H-Indazol-5-yl)-2-(3-((3-(trifluoromethyl)pyridin-4-yl)oxy)phenyl)but-1-en-1-yl)phenyl)acrylic acid]: on ER-α in MCF-7 cells, the Emax is no less than 40% and the DC50 is no more than 100 nM. In addition, in the assay with MCF-7 cells, the “MCF7 Viability Assay Max Response” value was “++ (++ = a single % value ≧ 40%)” and the IC50 is greater than 100 nM.
For `CC/C(=C(/c1ccc(/C=C/C(=O)O)cc1)c1ccc2[nH]ncc2c1)c1cc2c(s1)CCN(C)C2` [Compound 270, (E)-3-(4-((E)-1-(1H-Indazol-5-yl)-2-(5-methyl-4,5,6,7-tetrahydrothieno[3,2-c]pyridin-2-yl)but-1-en-1-yl)phenyl)acrylic acid], on ER-α in MCF-7 cells, the Emax was no less than 40% and the DC50 was greater than 100 nM. In the assay on MCF-7 cells, the “MCF7 Viability Assay Max Response” value is reported as “++ (++ = a single % value ≧ 40%)” and the IC50 was greater than 100 nM.
Take `CC/C(=C(/c1ccc(/C=C/C(=O)O)cc1)c1ccc2nccn2c1)c1ccccc1C` [Compound 129, (E)-3-(4-((E)-1-(Imidazo[1,2-a]pyridin-6-yl)-2-(o-tolyl)but-1-en-1-yl)phenyl)acrylic acid]: at ER-α in MCF-7 cells, the Emax is no less than 40% and the DC50 was no more than 100 nM. In the assay on MCF-7 cells, the “MCF7 Viability Assay Max Response” value is recorded as “++ (++ = a single % value ≧ 40%)” and the half-maximal inhibitory concentration (IC50) was greater than 100 nM.
As for `CC/C(=C(/c1ccc(/C=C/C(=O)O)cc1)c1ccc2[nH]ncc2c1)c1cccc(CC(=O)O)c1` [Compound 327, (E)-3-(4-((E)-2-(3-(Carboxymethyl)phenyl)-1-(1H-indazol-5-yl)but-1-en-1-yl)phenyl)acrylic acid], on ER-α in MCF-7 cells, the Emax is less than 40% and the DC50 is greater than 100 nM. In the assay with MCF-7 cells, the “MCF7 Viability Assay Max Response” value is “+ (+ = a single % value < 40%)” and the IC50 was greater than 100 nM.
Take `CC/C(=C(/c1ccc(/C=C/C(=O)O)cc1)c1ccc2[nH]ncc2c1F)c1ccc(Oc2ccccn2)cc1` [Compound 296, (E)-3-(4-((E)-1-(4-Fluoro-1H-indazol-5-yl)-2-(4-(pyridin-2-yloxy)phenyl)but-1-en-1-yl)phenyl)acrylic acid]: on ER-α in MCF-7 cells, the Emax is no less than 40% and the DC50 was no more than 100 nM. In the assay on MCF-7 cells, the “MCF7 Viability Assay Max Response” value is “++ (++ = a single % value ≧ 40%)” and the IC50 is no more than 100 nM.
For the compound `CC/C(=C(/c1ccc(/C=C/C(N)=O)cc1)c1ccc2[nH]ncc2c1)c1ccc(F)cc1Cl` [Compound 417, (E)-3-(4-((E)-2-(2-Chloro-4-fluorophenyl)-1-(1H-indazol-5-yl)but-1-en-1-yl)phenyl)acrylamide], on ER-α in MCF-7 cells, the Emax is no less than 40% and the DC50 was no more than 100 nM. Further, in the assay with MCF-7 cells, the “MCF7 Viability Assay Max Response” value is recorded as “++ (++ = a single % value ≧ 40%)” and the IC50 was no more than 100 nM.
Regarding `O=C(O)/C=C/c1ccc(/C(=C(\c2ccc(F)cc2Cl)C2CC2)c2cccc3[nH]ncc23)cc1` [Compound 73, (E)-3-(4-((E)-2-(2-Chloro-4-fluorophenyl)-2-cyclopropyl-1-(1H-indazol-4-yl)vinyl)phenyl)acrylic acid], on ER-α in MCF-7 cells, the Emax is no less than 40% and the DC50 is no more than 100 nM. Also, in the assay on MCF-7 cells, the “MCF7 Viability Assay Max Response” value is on record as “++ (++ = a single % value ≧ 40%)” and the IC50 was no more than 100 nM.
Turning to `CC/C(=C(/c1ccc(/C=C/C(=O)O)cc1)c1ccc2[nH]ncc2c1)c1ccc2ncsc2c1` [Compound 259, (E)-3-(4-((E)-2-(Benzo[d]thiazol-6-yl)-1-(1H-indazol-5-yl)but-1-en-1-yl)phenyl)acrylic acid], on ER-α in MCF-7 cells, the Emax was no less than 40% and the DC50 was no more than 100 nM. Further, in the assay on MCF-7 cells, the “MCF7 Viability Assay Max Response” value is on record as “++ (++ = a single % value ≧ 40%)” and the IC50 was no more than 100 nM.
Consider `CC/C(=C(/c1ccc(/C=C/C(=O)O)cc1)c1ccc2c[nH]c(=O)cc2c1)c1ccccc1` [Compound 90, (E)-3-(4-((E)-1-(3-Oxo-2,3-dihydroisoquinolin-6-yl)-2-phenylbut-1-en-1-yl)phenyl)acrylic acid], for which, on ER-α in MCF-7 cells, the Emax is no less than 40% and the DC50 was greater than 100 nM. In the assay on MCF-7 cells, the “MCF7 Viability Assay Max Response” value is “++ (++ = a single % value ≧ 40%)” and the IC50 was greater than 100 nM.
